According to ChEMBL document CHEMBL1122843, “Opioid receptor interactions and conformations of the 6 alpha and 6 beta epimers of oxymorphamine. Solid-state conformation of 6 alpha-oxymorphamine” (J Med Chem, 1985):

Tests used:
Mu-type opioid receptor = Mu-type opioid receptor (Rattus norvegicus, UniProt P33535); assay: Compound was evaluated for binding affinity against Opioid receptor mu 1 in rat brain membranes using [125I]-Tyr-D-Ala-Gly-NMePhe-Met; format: cell membranes; settings: read-out: I50
[1] = target: Delta-type opioid receptor (Rattus norvegicus, UniProt P33533); assay: Compound was evaluated for binding affinity against Opioid receptor delta 1 in rat brain membranes using [125I]-D-Ala2-Leu5-enkephalin; format: cell membranes; settings: read-out: I50
Sequence of Delta-type opioid receptor (P33533 whole entry): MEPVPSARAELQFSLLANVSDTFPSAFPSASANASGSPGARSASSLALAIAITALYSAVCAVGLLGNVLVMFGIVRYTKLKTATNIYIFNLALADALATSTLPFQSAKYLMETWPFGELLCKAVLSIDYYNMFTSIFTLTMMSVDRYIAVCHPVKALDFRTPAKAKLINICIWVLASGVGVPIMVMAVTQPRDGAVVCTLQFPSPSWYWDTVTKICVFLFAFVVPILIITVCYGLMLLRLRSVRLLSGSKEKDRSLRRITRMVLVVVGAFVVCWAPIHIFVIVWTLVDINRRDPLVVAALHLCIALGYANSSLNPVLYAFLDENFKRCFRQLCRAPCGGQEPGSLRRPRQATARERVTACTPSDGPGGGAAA

Sequence of Mu-type opioid receptor (P33535 whole entry): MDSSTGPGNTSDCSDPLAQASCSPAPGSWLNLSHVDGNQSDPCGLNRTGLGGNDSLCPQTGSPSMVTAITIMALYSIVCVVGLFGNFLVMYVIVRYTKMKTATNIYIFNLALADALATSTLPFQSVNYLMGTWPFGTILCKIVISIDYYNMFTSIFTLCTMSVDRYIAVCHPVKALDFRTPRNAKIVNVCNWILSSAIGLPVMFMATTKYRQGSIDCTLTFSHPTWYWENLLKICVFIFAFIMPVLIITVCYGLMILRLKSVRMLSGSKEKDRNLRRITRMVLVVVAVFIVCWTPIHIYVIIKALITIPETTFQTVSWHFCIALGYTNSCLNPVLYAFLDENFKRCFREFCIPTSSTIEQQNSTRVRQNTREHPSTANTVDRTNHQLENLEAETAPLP

SMILES: CN1CC[C@]23c4c5ccc(O)c4O[C@H]2[C@@H](N)CC[C@@]3(O)[C@H]1C5
- IC50 (Mu-type opioid receptor): 13 nM
- IC50 [1]: 250 nM

SMILES: CN1CC[C@]23c4c5ccc(O)c4O[C@H]2[C@H](N)CC[C@@]3(O)[C@H]1C5
- IC50 (Mu-type opioid receptor): 9 nM
- IC50 [1]: 110 nM
